Our source for the DC50 values is patent publication US20240287076A1, “COMPOUNDS FOR TARGETING DEGRADATION OF BRUTON'S TYROSINE KINASE” (BIOGEN MA INC., priority 2021, published 2024).

In this test the target is T1, BTK (Homo sapiens, UniProt Q06187).
T1 construct: The GM01501.3 cell line endogenously expresses BTK with a HiBiT fusion tag via CRISPR knock-in at its C-terminal region; endogenous in cells; host or cells: GM01501.3 (GM01501 cells engineered by CRISPR knock-in of HiBiT at the BTK locus)
As to the kind of experiment: BTK degradation assay using the HiBiT Method (Nano-Glo HiBiT Lytic Assay, GM01501.3 cells). The test is classed as cell-based. The following applies: HiBiT Degradation on GM01501.3 BTK @ 6 hours. Summed up: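 CRISPR knock-in GM01501.3 cells expressing endogenous BTK with C-terminal HiBiT tag, treated 6 h at 37 °C with compounds, 11-point half-log titration from 10 μM top, duplicates. Remaining BTK quantified by Nano-Glo HiBiT lytic luminescence versus DMSO controls; DC50 reported.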
(In general: HiBiT is a short tag that completes a luciferase, so light tracks the accessible tagged protein.)

A value given as a limit tells only on which side of the number the result lay.

T1 sequence (Q06187 whole entry, the tested form may be a part): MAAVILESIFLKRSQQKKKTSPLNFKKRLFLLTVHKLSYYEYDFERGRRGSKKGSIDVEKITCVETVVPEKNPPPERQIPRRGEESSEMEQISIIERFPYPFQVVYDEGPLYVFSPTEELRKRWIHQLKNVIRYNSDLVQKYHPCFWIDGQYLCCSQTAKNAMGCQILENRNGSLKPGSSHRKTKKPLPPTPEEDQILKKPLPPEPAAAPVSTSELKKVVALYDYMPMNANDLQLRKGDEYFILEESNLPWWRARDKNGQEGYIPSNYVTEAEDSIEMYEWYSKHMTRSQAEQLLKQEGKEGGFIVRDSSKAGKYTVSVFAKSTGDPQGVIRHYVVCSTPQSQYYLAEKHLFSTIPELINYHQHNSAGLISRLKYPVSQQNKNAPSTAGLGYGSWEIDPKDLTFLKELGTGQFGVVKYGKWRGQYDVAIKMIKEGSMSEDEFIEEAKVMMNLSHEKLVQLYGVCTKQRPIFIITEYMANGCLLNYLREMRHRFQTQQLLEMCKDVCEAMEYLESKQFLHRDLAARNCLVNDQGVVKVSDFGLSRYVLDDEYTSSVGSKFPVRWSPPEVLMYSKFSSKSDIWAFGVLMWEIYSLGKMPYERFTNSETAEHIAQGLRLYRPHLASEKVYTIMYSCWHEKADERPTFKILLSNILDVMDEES

Turning to `Cc1cc(-c2ncnn3cc(CCCCN4CCC(c5ccc6c(N7CCC(=O)NC7=O)nn(C)c6c5)C(F)(F)C4)cc23)ccc1CNC(=O)c1noc(C(C)(C)C)n1` (centres unmarked) [Example 283, 5-(tert-butyl)-N-(4-(6-(4-(4-(3-(2,4-dioxotetrahydropyrimidin-1(2H)-yl)-1-methyl-1H-indazol-6-yl)-3,3-difluoropiperidin-1-yl)butyl)pyrrolo[2,1-f][1,2,4]triazin-4-yl)-2-methylbenzyl)-1,2,4-oxadiazole-3-carboxamide], the 50% degradation concentration (DC50) – broadly, the concentration giving 50% degradation – was under 100 nM.

`Cc1cc(-c2ncnn3cc(-c4ccc(C(=O)NC5CCc6cc(NC7CCC(=O)NC7=O)ccc6C5)cc4)cc23)ccc1CNC(=O)c1noc(C(C)(C)C)n1` (centres unmarked) [Example 197, 5-(tert-butyl)-N-(4-(6-(4-((6-((2,6-dioxopiperidin-3-yl)amino)-1,2,3,4-tetrahydronaphthalen-2-yl)carbamoyl)phenyl)pyrrolo[2,1-f][1,2,4]triazin-4-yl)-2-methylbenzyl)-1,2,4-oxadiazole-3-carboxamide] returned a DC50 of under 100 nM.

In the case of `Cc1cc(-c2ncnn3cc(-c4ccc(CN5CCC(c6ccc(NC7CCC(=O)NC7=O)cc6)CC5)cc4)cc23)ccc1CNC(=O)c1ccc(C(C)C)cn1` (centres unmarked) [Example 89, N-[[4-[6-[4-[[4-[4-[(2,6-dioxo-3-piperidyl)amino]phenyl]-1-piperidyl]methyl]phenyl]pyrrolo[2,1-f][1,2,4]triazin-4-yl]-2-methyl-phenyl]methyl]-5-isopropyl-pyridine-2-carboxamide], the DC50 was under 100 nM.

`Cn1nc(N2CCC(=O)NC2=O)c2ccc(C3CCN(CCCCc4cc5c(-c6ccc7c(c6)OCCCC7NC(=O)c6noc(C(C)(C)C)n6)ncnn5c4)CC3)cc21` (centres unmarked) [Example 290, 5-(tert-butyl)-N-(8-(6-(4-(4-(3-(2,4-dioxotetrahydropyrimidin-1(2H)-yl)-1-methyl-1H-indazol-6-yl)piperidin-1-yl)butyl)pyrrolo[2,1-f][1,2,4]triazin-4-yl)-2,3,4,5-tetrahydrobenzo[b]oxepin-5-yl)-1,2,4-oxadiazole-3-carboxamide]: the DC50 was under 100 nM.

Consider `CC(C)(C)c1nc(C(=O)NCc2ccc(-c3ncnn4cc(-c5ccc(CN6CCN(c7ccc(C8CCC(=O)NC8=O)cn7)CC6)cc5)cc34)cc2F)no1` (centres unmarked) [Example 36, 5-tert-butyl-N-[[4-[6-[4-[[4-[5-(2,6-dioxo-3-piperidyl)-2-pyridyl]piperazin-1-yl]methyl]phenyl]pyrrolo[2,1-f][1,2,4]triazin-4-yl]-2-fluoro-phenyl]methyl]-1,2,4-oxadiazole-3-carboxamide], for which the DC50 was under 100 nM.

Turning to `Cc1cc(-c2ncnn3cc(CCCCN4CCN(c5ccc(NC6CCC(=O)NC6=O)cc5)CC4)cc23)ccc1CNC(=O)c1noc(C(C)(C)C)n1` (centres unmarked) [Example 131, 5-tert-butyl-N-[[4-[6-[4-[4-[4-[(2,6-dioxo-3-piperidyl)amino]phenyl]piperazin-1-yl]butyl]pyrrolo[2,1-f][1,2,4]triazin-4-yl]-2-methyl-phenyl]methyl]-1,2,4-oxadiazole-3-carboxamide], the DC50 was under 100 nM.

In the case of `CC(C)(C)c1nc(C(=O)NCc2ccc(-c3ncnn4cc(-c5ccc(CN6CCC(c7ccc(NC8CCC(=O)NC8=O)cn7)CC6)cc5)cc34)cc2F)no1` (centres unmarked) [Example 45, 5-tert-butyl-N-[[4-[6-[4-[[4-[5-[(2,6-dioxo-3-piperidyl)amino]-2-pyridyl]-1-piperidyl]methyl]phenyl]pyrrolo[2,1-f][1,2,4]triazin-4-yl]-2-fluoro-phenyl]methyl]-1,2,4-oxadiazole-3-carboxamide], the DC50 is under 100 nM.

`Cc1ccc(C(=O)NCc2ccc(-c3ncnn4cc(-c5ccc(CN6CCC(c7ccc(NC8CCC(=O)NC8=O)cc7)CC6)cc5)cc34)cc2C)c(F)c1` (centres unmarked) [Example 95, N-[[4-[6-[4-[[4-[4-[(2,6-dioxo-3-piperidyl)amino]phenyl]-1-piperidyl]methyl]phenyl]pyrrolo[2,1-f][1,2,4]triazin-4-yl]-2-methyl-phenyl]methyl]-2-fluoro-4-methyl-benzamide] yielded a DC50 of under 100 nM.

For the molecule `Cc1cc(-c2ncnn3cc(-c4ccc(CN5CCC(c6ccc(NC7CCC(=O)NC7=O)cc6)CC5)c(F)c4)cc23)ccc1CNC(=O)c1noc(C(C)(C)C)n1` (centres unmarked) [Example 23, 5-tert-butyl-N-[[4-[6-[4-[[4-[4-[(2,6-dioxo-3-piperidyl)amino]phenyl]-1-piperidyl]methyl]-3-fluoro-phenyl]pyrrolo[2,1-f][1,2,4]triazin-4-yl]-2-methyl-phenyl]methyl]-1,2,4-oxadiazole-3-carboxamide], the DC50 was under 100 nM.

For the molecule `Cc1cc(-c2ccnc3sc(CCCCN4CCC(c5ccc(NC6CCC(=O)NC6=O)cc5)CC4)cc23)ccc1CNC(=O)c1noc(C(C)(C)C)n1` (centres unmarked) [Example 158, 5-tert-butyl-N-[[4-[2-[4-[4-[4-[(2,6-dioxo-3-piperidyl)amino]phenyl]-1-piperidyl]butyl]thieno[2,3-b]pyridin-4-yl]-2-methyl-phenyl]methyl]-1,2,4-oxadiazole-3-carboxamide], the DC50 is 100 to 500 nM.

Regarding `Cc1cc(-c2ncnn3cc(-c4ccc(CN5CCC(c6ccc(NC7CCC(=O)NC7=O)cc6)CC5)cc4)cc23)ccc1CNC(=O)c1ccc(Cl)cc1` (centres unmarked) [Example 62, 4-chloro-N-[[4-[6-[4-[[4-[4-[(2,6-dioxo-3-piperidyl)amino]phenyl]-1-piperidyl]methyl]phenyl]pyrrolo[2,1-f][1,2,4]triazin-4-yl]-2-methyl-phenyl]methyl]benzamide], the DC50 is under 100 nM.

`Cc1cc(-c2ncnn3cc(-c4ccc(CN5CCC(c6ccc(NC7CCC(=O)NC7=O)cc6)CC5)cc4)cc23)ccc1CNC(=O)c1cc2ccccc2s1` (centres unmarked) [Example 77, N-[[4-[6-[4-[[4-[4-[(2,6-dioxo-3-piperidyl)amino]phenyl]-1-piperidyl]methyl]phenyl]pyrrolo[2,1-f][1,2,4]triazin-4-yl]-2-methyl-phenyl]methyl]benzothiophene-2-carboxamide] came in with a DC50 of under 100 nM.

The molecule `Cc1cc(-c2ncnn3cc(-c4ccc(CN5CCC(c6ccc7c(N8CCC(=O)NC8=O)nn(C)c7c6)CC5)cc4F)cc23)ccc1CNC(=O)c1noc(C(C)(C)C)n1` [Example 246, 5-(tert-butyl)-N-(4-(6-(4-((4-(3-(2,4-dioxotetrahydropyrimidin-1(2H)-yl)-1-methyl-1H-indazol-6-yl)piperidin-1-yl)methyl)-2-fluorophenyl)pyrrolo[2,1-f][1,2,4]triazin-4-yl)-2-methylbenzyl)-1,2,4-oxadiazole-3-carboxamide] displayed a DC50 of under 100 nM.

Turning to `Cc1cc(-c2ncnn3cc(N4CCN(C(=O)CCc5ccccc5CNC(=O)c5ccc(OC6CCC(=O)NC6=O)cc5)CC4)cc23)ccc1CNC(=O)c1noc(C(C)(C)C)n1` (centres unmarked) [Example 183, 5-(tert-butyl)-N-(4-(6-(4-(3-(2-((4-((2,6-dioxopiperidin-3-yl)oxy)benzamido)methyl)phenyl)propanoy 1)piperazin-1-yl)pyrrolo[2,1-f][1,2,4]triazin-4-y1)-2-methylbenzyl)-1,2,4-oxadiazole-3-carboxamide], the DC50 is under 100 nM.

`Cc1cc(-c2ncnn3cc(-c4ccc(CN5CCC(c6ccc(NC7CCC(=O)NC7=O)cc6)CC5)cc4)cc23)ccc1CNC(=O)c1ccc(C(F)(F)F)nc1` (centres unmarked) [Example 63, N-[[4-[6-[4-[[4-[4-[(2,6-dioxo-3-piperidyl)amino]phenyl]-1-piperidyl]methyl]phenyl]pyrrolo[2,1-f][1,2,4]triazin-4-yl]-2-methyl-phenyl]methyl]-6-(trifluoromethyl)pyridine-3-carboxamide]: the DC50 was under 100 nM.

The molecule `Cc1cc(-c2ncnn3cc(N4CCN(C(=O)CC5CC6(CO5)CN(C(=O)c5ccc(OC7CCC(=O)NC7=O)cc5)C6)CC4)cc23)ccc1CNC(=O)c1noc(C(C)(C)C)n1` (centres unmarked) [Example 190, 5-(tert-butyl)-N-(4-(6-(4-(2-(2-(4-((2,6-dioxopiperidin-3-yl)oxy)benzoyl)-6-oxa-2-azaspiro[3.4]octan-7-yl)acetyl)piperazin-1-yl)pyrrolo[2,1-f][1,2,4]triazin-4-yl)-2-methylbenzyl)-1,2,4-oxadiazole-3-carboxamide] returned a DC50 of under 100 nM.

As for `Cc1cc(-c2ncnn3cc(-c4cccc(CN5CCC(c6ccc(NC7CCC(=O)NC7=O)cc6)CC5)c4)cc23)ccc1CNC(=O)c1noc(C(C)(C)C)n1` (centres unmarked) [Example 50, 5-tert-butyl-N-[[4-[6-[3-[[4-[4-[(2,6-dioxo-3-piperidyl)amino]phenyl]-1-piperidyl]methyl]phenyl]pyrrolo[2,1-f][1,2,4]triazin-4-yl]-2-methyl-phenyl]methyl]-1,2,4-oxadiazole-3-carboxamide], the DC50 was under 100 nM.

For `Cc1cc(-c2ncnn3cc(-c4ccc(CN5CCC(c6ccc(NC7CCC(=O)NC7=O)cc6)CC5)cc4)cc23)ccc1CNC(=O)CCC(C)(C)C` (centres unmarked) [Example 81, N-[[4-[6-[4-[[4-[4-[(2,6-dioxo-3-piperidyl)amino]phenyl]-1-piperidyl]methyl]phenyl]pyrrolo[2,1-f][1,2,4]triazin-4-yl]-2-methyl-phenyl]methyl]-4,4-dimethyl-pentanamide], the DC50 was under 100 nM.

`Cc1cc(-c2ncnn3cc(CCN4CCC(c5ccc6c7c(cccc57)C(=O)N6C5CCC(=O)NC5=O)CC4)cc23)ccc1CNC(=O)c1noc(C(C)(C)C)n1` (centres unmarked) [Example 274, 5-(tert-butyl)-N-(4-(6-(2-(4-(1-(2,6-dioxopiperidin-3-yl)-2-oxo-1,2-dihydrobenzo[cd]indol-6-yl)piperidin-1-yl)ethyl)pyrrolo[2,1-f][1,2,4]triazin-4-yl)-2-methylbenzyl)-1,2,4-oxadiazole-3-carboxamide] registered a DC50 of under 100 nM.

`CC(C)(C)OC1CN(C(=O)NCc2ccc(-c3ncnn4cc(-c5ccc(CN6CCC(c7ccc(NC8CCC(=O)NC8=O)cc7)CC6)c(F)c5)cc34)cc2F)C1` (centres unmarked) [Example 221, 3-(tert-butoxy)-N-(4-(6-(4-((4-(4-((2,6-dioxopiperidin-3-yl)amino)phenyl)piperidin-1-yl)methyl)-3-fluorophenyl)pyrrolo[2,1-f][1,2,4]triazin-4-yl)-2-fluorobenzyl)azetidine-1-carboxamide] gave a half-maximal degradation concentration (DC50) of under 100 nM.
